According to PMC9303458 (Chemmedchem, 2022):
Like-named read-outs stand apart in the source and are kept apart here.

Key:
[1] = molecular target: T1, fatty acid amide hydrolase (FAAH), rat brain homogenate (Rattus norvegicus, UniProt P97612); assay type: biochemical; settings: for FAAH inhibition at 10 μM: highest test concentration; for inhibition at 10 µM: read-out: FAAH inhibition at 10 μM, 10 μM, highest test concentration
T1 sequence (P97612 1-579): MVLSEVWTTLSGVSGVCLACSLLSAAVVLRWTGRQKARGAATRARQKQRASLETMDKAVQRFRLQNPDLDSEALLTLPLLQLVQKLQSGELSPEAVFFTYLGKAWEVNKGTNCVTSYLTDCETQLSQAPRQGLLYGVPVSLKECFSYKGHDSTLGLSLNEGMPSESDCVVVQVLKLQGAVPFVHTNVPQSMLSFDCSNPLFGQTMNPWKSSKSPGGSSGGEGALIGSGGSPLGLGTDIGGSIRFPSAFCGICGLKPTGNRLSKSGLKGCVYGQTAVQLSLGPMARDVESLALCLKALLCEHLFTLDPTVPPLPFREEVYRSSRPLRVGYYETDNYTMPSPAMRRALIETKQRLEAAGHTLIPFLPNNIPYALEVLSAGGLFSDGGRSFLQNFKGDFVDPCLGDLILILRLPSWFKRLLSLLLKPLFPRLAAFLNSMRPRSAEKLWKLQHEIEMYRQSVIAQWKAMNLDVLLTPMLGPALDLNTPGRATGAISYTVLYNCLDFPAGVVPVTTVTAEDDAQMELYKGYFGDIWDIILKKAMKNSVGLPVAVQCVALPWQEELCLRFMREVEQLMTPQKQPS

[2] = Chemical stability in aqueous solution; assay type: physicochemical; settings: percent of parent remaining after 60 min at 37 °C; mean ± SD, n=3
[3] = Metabolic stability in porcine liver S9 fraction; assay type: in vitro ADME; settings: for Porcine liver S9 fraction Stability: percent of parent remaining after 30 min at 37 °C, mean ± SD, n=3
[4] = Metabolic stability in porcine blood plasma; assay type: in vitro ADME; settings: for Porcine blood plasma Stability: percent of parent remaining after 30 min at 37 °C, mean ± SD, n=3
[5] = molecular target: T2, human recombinant MAGL (Homo sapiens, UniProt Q99685); assay type: biochemical; settings: for MAGL inhibition at 10 μM: highest test concentration
T2 sequence (Q99685 1-303): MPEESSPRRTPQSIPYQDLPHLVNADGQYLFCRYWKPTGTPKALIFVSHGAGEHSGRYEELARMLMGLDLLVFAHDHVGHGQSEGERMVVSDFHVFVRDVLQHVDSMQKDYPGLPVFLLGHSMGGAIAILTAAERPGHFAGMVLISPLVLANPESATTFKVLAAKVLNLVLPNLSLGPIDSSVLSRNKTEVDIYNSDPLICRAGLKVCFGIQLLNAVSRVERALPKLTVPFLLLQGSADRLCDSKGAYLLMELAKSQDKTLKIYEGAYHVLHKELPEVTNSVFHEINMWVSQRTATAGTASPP

[6] = Caco‐2 cell permeability; settings: human, Caco-2, pH 7.4
[7] = molecular target: butyrylcholinesterase (BuChE) (Equus caballus, UniProt P81908); experiment: Inhibition of BuChE, release of benzoic acid from benzoylcholine; assay type: biochemical, horse
[8] = Thermodynamic aqueous solubility; assay type: physicochemical; settings: PBS pH 7.4, shaken 20 h, 20 °C; mean ± SD
[9] = dogs, peroral application; cited from earlier work
[10] = rats, peroral application; cited from earlier work
[11] = system: Caco‐2 cell monolayer; experiment: Caco‐2 cell permeability
[12] = system: Caco‐2 cell monolayer; settings: Caco‐2, comparable conditions; cited from earlier work

Chain of butyrylcholinesterase (BuChE) (P81908 whole entry): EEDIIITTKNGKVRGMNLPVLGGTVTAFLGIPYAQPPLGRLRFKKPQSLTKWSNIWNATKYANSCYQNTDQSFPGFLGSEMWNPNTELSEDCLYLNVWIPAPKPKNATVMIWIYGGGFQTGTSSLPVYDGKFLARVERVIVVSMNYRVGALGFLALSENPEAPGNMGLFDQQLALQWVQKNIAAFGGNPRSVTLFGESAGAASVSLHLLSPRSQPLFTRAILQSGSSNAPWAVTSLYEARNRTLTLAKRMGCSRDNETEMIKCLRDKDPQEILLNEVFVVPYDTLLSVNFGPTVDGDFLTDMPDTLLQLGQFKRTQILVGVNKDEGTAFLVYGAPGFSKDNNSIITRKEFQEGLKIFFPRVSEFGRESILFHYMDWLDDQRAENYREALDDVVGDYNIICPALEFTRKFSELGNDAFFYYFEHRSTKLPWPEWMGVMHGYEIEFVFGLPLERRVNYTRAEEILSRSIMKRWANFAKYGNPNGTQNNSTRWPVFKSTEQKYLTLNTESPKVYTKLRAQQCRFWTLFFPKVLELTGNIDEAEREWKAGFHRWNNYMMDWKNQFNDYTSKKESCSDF

## O=C(OC(C(F)(F)F)C(F)(F)F)N1CCC(CCn2ccc3ccc(F)cc32)CC1 [Compound 24, 1,1,1,3,3,3‐Hexafluoropropan‐2‐yl 4‐[2‐(6‐fluoroindol‐1‐yl)ethyl]piperidine‐1‐carboxylate]
[1]
  IC50: 1000 nM
[2]
  PBS‐buffer pH 7.4 Stability: 93±1%
[3]
  Porcine liver S9 fraction Stability: 68±7%
[4]
  Porcine blood plasma Stability: 86±7%

## O=C(OC(C(F)(F)F)C(F)(F)F)N1CCC(Cn2ccc3cccc(F)c32)CC1 [Compound 54]
[1]
  FAAH inhibition at 10 μM: no inhibitory activity

## O=C(OC(C(F)(F)F)C(F)(F)F)N1CCC(CCn2ccc3cccc(F)c32)CC1 [Compound 75]
[1]
  IC50: 1200 nM

## CC(C)N(CCCCCn1ccc2ccc(F)cc21)C(=O)OC(C(F)(F)F)C(F)(F)F [Compound 40]
[1]
  FAAH inhibition at 10 μM: inactive
[5]
  MAGL inhibition at 10 μM: inactive

## O=C(OC(C(F)(F)F)C(F)(F)F)N1CCC(CCCCn2ccc3ccc(F)cc32)CC1 [Compound 32]
[1]
  IC50: 2800 nM

## O=C(OC(C(F)(F)F)C(F)(F)F)N1CCC(CCn2ccc3cc(F)ccc32)CC1 [Compound 72]
[1]
  IC50: 2800 nM

## CCOC(=O)C1=C[C@@H](OC(CC)CC)[C@H](NC(C)=O)[C@@H](N)C1 [oseltamivir, reference compound]
[3]; percent degraded under the conditions of the stability assay
  Degradation in porcine liver homogenate: approximately 90%

## O=C(OC(C(F)(F)F)C(F)(F)F)N1CCC(Cn2ccc3c(F)cccc32)CC1 [Compound 48]
[1]
  FAAH inhibition at 10 μM: no inhibitory activity

## CCN(CCCCCn1ccc2ccc(F)cc21)C(=O)OC(C(F)(F)F)C(F)(F)F [Compound 38, 1,1,1,3,3,3‐Hexafluoropropan‐2‐yl N‐ethyl‐N‐[5‐(6‐fluoroindol‐1‐yl)pentyl]carbamate]
[1]
  FAAH inhibition at 10 μM: inactive
[5]
  MAGL inhibition at 10 μM: inactive

## COc1ccc2c(ccn2CCC2CCN(C(=O)OC(C(F)(F)F)C(F)(F)F)CC2)c1 [Compound 84]
[1]
  IC50: 8300 nM

## O=C(OC(C(F)(F)F)C(F)(F)F)N1CCN(CCn2ccc3ccc(F)cc32)CC1 [Compound 92, 1,1,1,3,3,3‐Hexafluoropropan‐2‐yl 4‐[2‐(6‐fluoroindol‐1‐yl)ethyl]piperazine‐1‐carboxylate]
[1]
  IC50: 2600 nM
[1]; ratio of IC50 values
  Decrease of activity towards FAAH relative to lead structure 24 (factor): ~2.5
[5]; ratio of IC50 values
  Decrease of activity towards MAGL relative to lead structure 24 (factor): about 1.5

## CCCc1nc(C(C)(C)O)c(C(=O)OCc2oc(=O)oc2C)n1Cc1ccc(-c2ccccc2-c2nnn[nH]2)cc1 [olmesartan medoxomil, reference compound]
[4]; under the conditions of the stability assay
  Hydrolysis in porcine blood plasma: almost quantitatively hydrolyzed

## O=C(OC(C(F)(F)F)C(F)(F)F)N1CCC(CCn2nnc3ccccc32)CC1 [Compound 104]
[1]
  IC50: > 10000 nM

## O=C(OC(C(F)(F)F)C(F)(F)F)N1CCC(Cn2ccc3cccnc32)CC1 [Compound 125, 1,1,1,3,3,3‐Hexafluoropropan‐2‐yl 4‐[(7‐azaindol‐1‐yl)methyl]piperidine‐1‐carboxylate]
[1]
  FAAH inhibition at 10 μM: ineffective
[2]
  PBS‐buffer pH 7.4 Stability: 92±7%
[3]
  Porcine liver S9 fraction Stability: 75±8%
[4]
  Porcine blood plasma Stability: 79±6%
[6]
  Papp A→B at 2 h, 10 µM: 10 ×10⁻⁶ cm/s

## O=C(NCCCCCn1ccc2ccc(F)cc21)Oc1ccccc1 [Compound 6, phenyl N‐[5‐(6‐fluoroindol‐1‐yl)pentyl]carbamate]
[5]
  MAGL inhibition at 10 μM: no inhibition

## O=C(OC(C(F)(F)F)C(F)(F)F)N1CCC(Cn2cnc3ccccc32)CC1 [Compound 122]
[1]
  FAAH inhibition at 10 μM: ineffective

## O=C(OC(C(F)(F)F)C(F)(F)F)N1CCC(CCn2ccc3c(F)cccc32)CC1 [Compound 69]
[1]
  IC50: 2500 nM

## CN(CCCCCn1ccc2ccc(F)cc21)C(=O)OC(C(F)(F)F)C(F)(F)F [Compound 35, 1,1,1,3,3,3‐Hexafluoropropan‐2‐yl N‐methyl‐N‐[5‐(6‐fluoroindol‐1‐yl)pentyl]carbamate]
[1]
  inhibition at 10 µM: ~30%
[5]; read-out: MAGL inhibition at 10 μM
  inhibition at 10 µM: ~30%

## O=C(OC(C(F)(F)F)C(F)(F)F)N1CCC(CCCn2ccc3ccc(F)cc32)CC1 [Compound 28]
[1]
  IC50: 6300 nM

## O=C(NCCCCCn1ccc2ccc(F)cc21)OC(C(F)(F)F)C(F)(F)F [Compound 11, 1,1,1,3,3,3‐Hexafluoropropan‐2‐yl N‐[5‐(6‐fluoroindol‐1‐yl)pentyl]carbamate]
[1]
  IC50: 740 nM
[2]
  PBS‐buffer pH 7.4 Stability: 95±4%
[3]
  Porcine liver S9 fraction Stability: 72±5%
[4]
  Porcine blood plasma Stability: 86±9%
[7]
  IC50: 3500 nM

## Cc1ccc2c(ccn2CC2CCN(C(=O)OC(C(F)(F)F)C(F)(F)F)CC2)c1 [Compound 57]
[1]
  IC50: > 10000 nM
  inhibition at 10 µM: ~25%

## O=C(OC(C(F)(F)F)C(F)(F)F)N1CCC(CCn2ccc3cc(Cl)ccc32)CC1 [Compound 78]
[1]
  IC50: 7500 nM

## O=C(OC(C(F)(F)F)C(F)(F)F)N1CCN(Cc2ccc(C(F)(F)F)cc2N2CCCC2)CC1 [ABX‐1431, reference compound]
[2]
  PBS‐buffer pH 7.4 Stability: 90±5%
[3]
  Porcine liver S9 fraction Stability: 81±3%
[4]
  Porcine blood plasma Stability: 95±2%
[8]
  Aqueous solubility pH 7.4: very low solubility
[9]
  Bioavailability: more than 60%
[10]
  Bioavailability: more than 60%
[11]; Caco‐2, 10 μM apical, 2 h, 37 °C, mean ± SD, n=3, n.d.: no permeation detectable
  Permeability coefficient pH 7.4: could not be detected

## O=C(NCCCCCCCn1ccc2ccc(F)cc21)OC(C(F)(F)F)C(F)(F)F [Compound 15]
[1]
  IC50: 1000 nM

## O=C(OC(C(F)(F)F)C(F)(F)F)N1CCC(CCn2cnc3ccccc32)CC1 [Compound 101, 1,1,1,3,3,3‐Hexafluoropropan‐2‐yl 4‐[2‐(benzimidazol‐1‐yl)ethyl]piperidine‐1‐carboxylate]
[1]
  IC50: 1000 nM
[2]
  PBS‐buffer pH 7.4 Stability: > 95%
[3]
  Porcine liver S9 fraction Stability: 82±7%
[4]
  Porcine blood plasma Stability: 93±5%
[8]
  Aqueous solubility pH 7.4: 6.1±0.5 μg/mL
[6]
  Papp A→B at 2 h, 10 µM: 12.6 ± 1 ×10⁻⁶ cm/s

## Cc1ccc2c(ccn2CCC2CCN(C(=O)OC(C(F)(F)F)C(F)(F)F)CC2)c1 [Compound 81]
[1]
  IC50: > 10000 nM

## COc1ccc2c(c1)c(CC(=O)O)c(C)n2C(=O)c1ccc(Cl)cc1 [indomethacin, reference compound]
[12]
  Permeability coefficient, literature value: 20.4 ×10⁻⁶ cm/s
[11]; sum of apical and basolateral compartments after 2 h
  Recovery of test compound at the end of the Caco‐2 experiment: quantitative

## O=C(OC(C(F)(F)F)C(F)(F)F)N(CCCCCn1ccc2ccc(F)cc21)C1CC1 [Compound 42]
[1]
  FAAH inhibition at 10 μM: inactive
[5]
  MAGL inhibition at 10 μM: inactive

## NC(=O)c1cccc(-c2cccc(OC(=O)NC3CCCCC3)c2)c1 [URB597, reference compound]
[2]
  PBS‐buffer pH 7.4 Stability: > 95%
[3]
  Porcine liver S9 fraction Stability: 80±4%

## COc1ccc2c(ccn2CC2CCN(C(=O)OC(C(F)(F)F)C(F)(F)F)CC2)c1 [Compound 60]
[1]
  IC50: > 10000 nM
  inhibition at 10 µM: ~25%

## O=C(OC(C(F)(F)F)C(F)(F)F)N1CCC(Cn2ccc3ccccc32)CC1 [Compound 45]
[1]
  FAAH inhibition at 10 μM: no inhibitory activity

## O=C(OC(C(F)(F)F)C(F)(F)F)N1CCC(Cn2ccc3ccc(F)cc32)CC1 [Compound 20, 1,1,1,3,3,3‐Hexafluoropropan‐2‐yl 4‐[(6‐fluoroindol‐1‐yl)methyl]piperidine‐1‐carboxylate]
[1]
  FAAH inhibition at 10 μM: no inhibitory activity
[2]
  PBS‐buffer pH 7.4 Stability: > 95%
[3]
  Porcine liver S9 fraction Stability: 75±3%
[4]
  Porcine blood plasma Stability: 82±6%

## N#Cc1ccc2c(ccn2CCC2CCN(C(=O)OC(C(F)(F)F)C(F)(F)F)CC2)c1 [Compound 87]
[1]
  IC50: > 10000 nM

## O=C(NCCCCCCn1ccc2ccc(F)cc21)OC(C(F)(F)F)C(F)(F)F [Compound 13, 1,1,1,3,3,3‐Hexafluoropropan‐2‐yl N‐[6‐(6‐fluoroindol‐1‐yl)hexyl]carbamate]
[1]
  IC50: 770 nM
[2]
  PBS‐buffer pH 7.4 Stability: 95±3%
[3]
  Porcine liver S9 fraction Stability: 69±5%
[4]
  Porcine blood plasma Stability: 79±8%
[7]
  IC50: 1800 nM

## O=C(OC(C(F)(F)F)C(F)(F)F)N1CCC(CCn2ccc3ccccc32)CC1 [Compound 66]
[1]
  IC50: 2100 nM

## N#Cc1ccc2c(ccn2CC2CCN(C(=O)OC(C(F)(F)F)C(F)(F)F)CC2)c1 [Compound 63]
[1]
  IC50: > 10000 nM
  inhibition at 10 µM: ~25%
